Each compound was assayed against human MGL from HeLa cells (Homo sapiens (Human), UniProt Q99685) (assay: MGL in vitro activity assay ([glycerol-1,3-3H]-oleoyl glycerol hydrolysis, activated carbon filtration)). Conditions: 300 nM [Glycerol-1,3-3H]-oleoyl glycerol, one hour.
Type: biochemical
In short: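 Endogenous human MGL in HeLa cells/homogenates incubated 1 h with test compounds and 300 nM [glycerol-1,3-3H]-oleoyl glycerol. Released 3H-glycerol passing an activated carbon filter counted as activity; screening at 10 μM compound, top IC50 concentration set empirically.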

Sequence of human MGL from HeLa cells (Q99685 whole entry): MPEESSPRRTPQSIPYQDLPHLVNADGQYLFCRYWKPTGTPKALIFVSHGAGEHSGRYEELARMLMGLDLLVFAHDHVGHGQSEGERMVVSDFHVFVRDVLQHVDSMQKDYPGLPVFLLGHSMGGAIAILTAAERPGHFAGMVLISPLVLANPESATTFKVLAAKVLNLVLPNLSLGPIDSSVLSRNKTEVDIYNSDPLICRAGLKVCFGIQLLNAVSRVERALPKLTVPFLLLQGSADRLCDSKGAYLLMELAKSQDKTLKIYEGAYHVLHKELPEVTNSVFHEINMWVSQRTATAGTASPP

Question: Which IC50 does the source give for C[C@]1(O)C[C@@H](C(=O)N2CCC3(CCC(c4ccc(C(F)(F)F)cc4)C3)CC2)C1 (mixture of isomers) [Example 152, (rac)-((1s,3s)-3-Hydroxy-3-methylcyclobutyl)(2-(4-(trifluoromethyl)phenyl)-8-azaspiro[4.5]decan-8-yl)methanone] here?
Answer: 3.3 nM

Question: Which IC50 does the source give for CC(C)c1cc(F)cc(C2CCC3(C2)CN(C(=O)[C@H]2C[C@@](C)(O)C2)C3)c1 (mixture of isomers) [Example 125, (rac)-(6-(3-Fluoro-5-isopropylphenyl)-2-azaspiro[3.4]octan-2-yl)((1s,3s)-3-hydroxy-3-methylcyclobutyl)methanone] here?
Answer: 8.3 nM

Question: How did the IC50 turn out when CCc1cc(OC(F)(F)F)cc(C2CCC3(CC2)CN(C(=O)[C@H]2C[C@@](C)(O)C2)C3)c1 [Example 148, (7-(3-Ethyl-5-(trifluoromethoxy)phenyl)-2-azaspiro[3.5]nonan-2-yl)((1s,3s)-3-hydroxy-3-methylcyclobutyl)methanone] was run?
Answer: 9.4 nM

Question: For Cc1cc(C2CCC3(C2)CN(C(=O)[C@H]2C[C@@](C)(O)C2)C3)cc(C(F)(F)F)c1 (mixture of isomers) [Example 77, (rac)-((1s,3s)-3-Hydroxy-3-methylcyclobutyl)(6-(3-methyl-5-(trifluoromethyl)phenyl)-2-azaspiro[3.4]octan-2-yl)methanone], which IC50 is on record?
Answer: 12 nM

Question: For C[C@]1(O)C[C@@H](C(=O)N2CC3(CCC(c4cc5n(n4)CCCC5)CC3)C2)C1 [Example 395, ((1s,3s)-3-Hydroxy-3-methylcyclobutyl)(7-(4,5,6,7-tetrahydropyrazolo[1,5-a]pyridin-2-yl)-2-azaspiro[3.5]nonan-2-yl)methanone], which IC50 is on record?
Answer: 354 nM

Question: With COc1cc(F)cc(C2CCC3(CC2)CN(C(=O)[C@H]2C[C@@](C)(O)C2)C3)c1F [Example 369, (7-(2,5-Difluoro-3-methoxyphenyl)-2-azaspiro[3.5]nonan-2-yl)((1s,3s)-3-hydroxy-3-methylcyclobutyl)methanone] as the compound, how does the IC50 read?
Answer: 35 nM

Question: For CC(C)(C)c1ccc(C2CCC3(CCN(C(=O)[C@H]4C[C@@](C)(O)C4)CC3)C2)cc1 (mixture of isomers) [Example 39, (rac)-(2-(4-(tert-Butyl)phenyl)-8-azaspiro[4.5]decan-8-yl)((1s,3s)-3-hydroxy-3-methylcyclobutyl)methanone], which IC50 is on record?
Answer: 18 nM

Question: For Cc1cnc(OC2CCC3(CC2)CN(C(=O)[C@H]2C[C@@](C)(O)C2)C3)c(C)c1 [Example 430, (7-((3,5-Dimethylpyridin-2-yl)oxy)-2-azaspiro[3.5]nonan-2-yl)((1s,3s)-3-hydroxy-3-methylcyclobutyl)methanone], which IC50 is on record?
Answer: 12 nM

Question: Which IC50 does the source give for CCc1ccc(C(F)F)c(OC2CCC3(CC2)CN(C(=O)[C@H]2C[C@@](C)(O)C2)C3)n1 [Example 441, (7-((3-(Difluoromethyl)-6-ethylpyridin-2-yl)oxy)-2-azaspiro[3.5]nonan-2-yl)((1s,3s)-3-hydroxy-3-methylcyclobutyl)methanone] here?
Answer: 14 nM

Question: Which IC50 does the source give for C[C@]1(O)C[C@@H](C(=O)N2CC3(CCC(Oc4ccc(C(F)F)cn4)CC3)C2)C1 [Example 423, (7-((5-(Difluoromethyl)pyridin-2-yl)oxy)-2-azaspiro[3.5]nonan-2-yl)((1s,3s)-3-hydroxy-3-methylcyclobutyl)methanone] here?
Answer: 188 nM

Question: For C[C@]1(O)C[C@@H](C(=O)N2CC3(CC[C@@H](c4cccc(C5CC5)c4F)C3)C2)C1 (stereo in doubt) [Example 25, ((*R)-6-(3-Cyclopropyl-2-fluorophenyl)-2-azaspiro[3.4]octan-2-yl)((1s,3*S)-3-hydroxy-3-methylcyclobutyl)methanone], which IC50 is on record?
Answer: 4 nM

Question: Which IC50 does the source give for Cc1cc(C2CC3(C2)CN(C(=O)[C@H]2C[C@@](C)(O)C2)C3)cc(C(F)(F)F)c1 [Example 267, ((1s,3s)-3-Hydroxy-3-methylcyclobutyl)(6-(3-methyl-5-(trifluoromethyl)phenyl)-2-azaspiro[3.3]heptan-2-yl)methanone] here?
Answer: 65 nM

Question: CC(C)c1cccc(CC2CC3(C2)CN(C(=O)[C@H]2C[C@@](C)(O)C2)C3)c1 [Example 186, ((1s,3s)-3-Hydroxy-3-methylcyclobutyl)(6-(3-isopropylbenzyl)-2-azaspiro[3.3]heptan-2-yl)methanone] was tested. Which IC50 did it give?
Answer: 4.7 nM

Question: For CCc1ccc(OC2CCC3(CC2)CN(C(=O)[C@H]2C[C@@](C)(O)C2)C3)nc1OC [Example 454, (7-((5-Ethyl-6-methoxypyridin-2-yl)oxy)-2-azaspiro[3.5]nonan-2-yl)((1s,3s)-3-hydroxy-3-methylcyclobutyl)methanone], which IC50 is on record?
Answer: 2.2 nM

Question: C[C@]1(O)C[C@@H](C(=O)N2CC3(CC(Cc4cccc(C(F)(F)F)c4)C3)C2)C1 [Example 193, ((1s,3s)-3-Hydroxy-3-methylcyclobutyl)(6-(3-(trifluoromethyl)benzyl)-2-azaspiro[3.3]heptan-2-yl)methanone] was tested. Which IC50 did it give?
Answer: 5.8 nM

Question: With CC(C)c1ccccc1CC1CC2(C1)CN(C(=O)[C@H]1C[C@@](C)(O)C1)C2 [Example 187, ((1s,3s)-3-Hydroxy-3-methylcyclobutyl)(6-(2-isopropylbenzyl)-2-azaspiro[3.3]heptan-2-yl)methanone] as the compound, how does the IC50 read?
Answer: 12 nM

Question: CC(C)n1ccc2ccc(CC3CC4(C3)CN(C(=O)C3CC(C)(O)C3)C4)nc21 (centres unmarked) [Example 289, ((1s,3s)-3-Hydroxy-3-methylcyclobutyl)(6-((1-isopropyl-1H-pyrrolo[2,3-b]pyridin-6-yl)methyl)-2-azaspiro[3.3]heptan-2-yl)methanone] was tested. Which IC50 did it give?
Answer: 8.2 nM

Question: Which IC50 does the source give for Cn1cc(C2CCC3(C2)CN(C(=O)[C@H]2C[C@@](C)(O)C2)C3)cn1 (mixture of isomers) [Example 99, (rac)-((1s,3s)-3-Hydroxy-3-methylcyclobutyl)(6-(1-methyl-1H-pyrazol-4-yl)-2-azaspiro[3.4]octan-2-yl)methanone] here?
Answer: 5930 nM

Question: For Cc1ccc(CC2CC3(C2)CN(C(=O)[C@H]2C[C@@](C)(O)C2)C3)cc1 [Example 166, ((1s,3s)-3-Hydroxy-3-methylcyclobutyl)(6-(4-methylbenzyl)-2-azaspiro[3.3]heptan-2-yl)methanone], which IC50 is on record?
Answer: 14 nM

Question: For CC(C)(C)c1cccc([C@H]2CCC3(C2)CN(C(=O)[C@H]2C[C@@](C)(O)C2)C3)c1 (stereo in doubt) [Example 45, ((*S)-6-(3-(tert-Butyl)phenyl)-2-azaspiro[3.4]octan-2-yl)((1s,3*R)-3-hydroxy-3-methylcyclobutyl)methanone], which IC50 is on record?
Answer: 11 nM

Question: For C[C@]1(O)C[C@@H](C(=O)N2CC3(CCC(Oc4ccc(F)c(C5CC5)c4)C3)C2)C1 (mixture of isomers) [Example 335, (rac)-(6-(3-Cyclopropyl-4-fluorophenoxy)-2-azaspiro[3.4]octan-2-yl)((1s,3s)-3-hydroxy-3-methylcyclobutyl)methanone], which IC50 is on record?
Answer: 116 nM

Question: C[C@]1(O)C[C@@H](C(=O)N2CC3(CC(Cc4cccc(C(F)F)c4)C3)C2)C1 [Example 231, (6-(3-(Difluoromethyl)benzyl)-2-azaspiro[3.3]heptan-2-yl)((1s,3s)-3-hydroxy-3-methylcyclobutyl)methanone] was tested. Which IC50 did it give?
Answer: 14 nM

Question: Which IC50 does the source give for COc1ccc(CC2CC3(C2)CN(C(=O)[C@H]2C[C@@](C)(O)C2)C3)cc1 [Example 192, ((1s,3s)-3-Hydroxy-3-methylcyclobutyl)(6-(4-methoxybenzyl)-2-azaspiro[3.3]heptan-2-yl)methanone] here?
Answer: 22 nM

Question: For CC(C)c1cccc(C2CC3(C2)CN(C(=O)[C@H]2C[C@@](C)(O)C2)C3)c1 [Example 3, ((1s,3s)-3-Hydroxy-3-methylcyclobutyl)(6-(3-isopropylphenyl)-2-azaspiro[3.3]heptan-2-yl)methanone], which IC50 is on record?
Answer: 24 nM

Question: How did the IC50 turn out when C[C@H](c1ccccc1)[C@H]1CCC2(C1)CN(C(=O)[C@H]1C[C@@](C)(O)C1)C2 (relative stereo) [Example 339, ((1s,3*R)-3-Hydroxy-3-methylcyclobutyl)((*S)-6-((*S)-1-phenylethyl)-2-azaspiro[3.4]octan-2-yl)methanone] was run?
Answer: 48 nM

Question: How did the IC50 turn out when CCn1cc(F)c2ccc(OC3CCC4(CC3)CN(C(=O)[C@H]3C[C@@](C)(O)C3)C4)nc21 [Example 475, (7-((1-Ethyl-3-fluoro-1H-pyrrolo[2,3-b]pyridin-6-yl)oxy)-2-azaspiro[3.5]nonan-2-yl)((1s,3s)-3-hydroxy-3-methylcyclobutyl)methanone] was run?
Answer: 4.6 nM

Question: CC(C)(C)c1cccc(OC2CCC3(C2)CN(C(=O)[C@H]2C[C@@](C)(O)C2)C3)c1 (mixture of isomers) [Example 243, (rac)-(6-(3-(tert-Butyl)phenoxy)-2-azaspiro[3.4]octan-2-yl)((1s,3s)-3-hydroxy-3-methylcyclobutyl)methanone] was tested. Which IC50 did it give?
Answer: 26 nM

Question: Which IC50 does the source give for CC(C)(C)c1cccc(C2CCC3(C2)CN(C(=O)[C@H]2C[C@@](C)(O)C2)C3)n1 (mixture of isomers) [Example 29, (rac)-(6-(6-(tert-Butyl)pyridin-2-yl)-2-azaspiro[3.4]octan-2-yl)((1s,3s)-3-hydroxy-3-methylcyclobutyl)methanone] here?
Answer: 7.7 nM

Question: For CCc1ccc(OC2CCC3(CC2)CN(C(=O)[C@H]2C[C@@](C)(O)C2)C3)nc1C(F)(F)F [Example 450, (7-((5-Ethyl-6-(trifluoromethyl)pyridin-2-yl)oxy)-2-azaspiro[3.5]nonan-2-yl)((1s,3s)-3-hydroxy-3-methylcyclobutyl)methanone], which IC50 is on record?
Answer: 2.9 nM

Question: CC(C)(C)c1cccc(OC2CC3(C2)CN(C(=O)[C@H]2C[C@@](C)(O)C2)C3)c1 [Example 244, (6-(3-(tert-Butyl)phenoxy)-2-azaspiro[3.3]heptan-2-yl)((1s,3s)-3-hydroxy-3-methylcyclobutyl)methanone] was tested. Which IC50 did it give?
Answer: 63 nM

Question: With Cn1ncc2c(F)cc(CC3CC4(C3)CN(C(=O)[C@H]3C[C@@](C)(O)C3)C4)cc21 [Example 303, (6-((4-Fluoro-1-methyl-1H-indazol-6-yl)methyl)-2-azaspiro[3.3]heptan-2-yl)((1s,3s)-3-hydroxy-3-methylcyclobutyl)methanone] as the compound, how does the IC50 read?
Answer: 29 nM

Question: Which IC50 does the source give for Cc1ccc(C2CCC3(CC2)CN(C(=O)[C@H]2C[C@@](C)(O)C2)C3)cc1C [Example 134, (7-(3,4-Dimethylphenyl)-2-azaspiro[3.5]nonan-2-yl)((1s,3s)-3-hydroxy-3-methylcyclobutyl)methanone] here?
Answer: 12 nM
